Like-named read-outs stand apart in the source and are kept apart here. Each block holds one molecule with its values, some of them ahead of it.
What was measured:
[1] = target: T1, aurora A kinase (AURKA) (Homo sapiens, UniProt O14965); test: ADP-Glo kinase assay, Aurora A; assay type: biochemical
T1 construct: purchased BPS Bioscience (assay run externally by the vendor)
T1 sequence (O14965 1-403): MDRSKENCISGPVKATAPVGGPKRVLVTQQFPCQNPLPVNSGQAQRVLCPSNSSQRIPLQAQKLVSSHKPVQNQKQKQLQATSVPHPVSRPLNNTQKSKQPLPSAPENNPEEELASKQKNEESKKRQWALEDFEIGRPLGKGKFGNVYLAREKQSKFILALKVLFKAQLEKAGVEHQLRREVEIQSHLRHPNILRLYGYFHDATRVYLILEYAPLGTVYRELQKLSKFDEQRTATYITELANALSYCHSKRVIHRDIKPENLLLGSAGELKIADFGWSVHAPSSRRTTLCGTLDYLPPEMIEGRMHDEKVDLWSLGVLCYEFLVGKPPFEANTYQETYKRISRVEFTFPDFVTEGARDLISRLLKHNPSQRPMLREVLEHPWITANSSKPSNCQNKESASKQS

[2] = target: EGFR (Homo sapiens, UniProt P00533); test: ADP-Glo kinase assay, EGFR; assay type: biochemical; set-up: purchased BPS Bioscience (assay run externally by the vendor)
Chain of EGFR (P00533 25-1210): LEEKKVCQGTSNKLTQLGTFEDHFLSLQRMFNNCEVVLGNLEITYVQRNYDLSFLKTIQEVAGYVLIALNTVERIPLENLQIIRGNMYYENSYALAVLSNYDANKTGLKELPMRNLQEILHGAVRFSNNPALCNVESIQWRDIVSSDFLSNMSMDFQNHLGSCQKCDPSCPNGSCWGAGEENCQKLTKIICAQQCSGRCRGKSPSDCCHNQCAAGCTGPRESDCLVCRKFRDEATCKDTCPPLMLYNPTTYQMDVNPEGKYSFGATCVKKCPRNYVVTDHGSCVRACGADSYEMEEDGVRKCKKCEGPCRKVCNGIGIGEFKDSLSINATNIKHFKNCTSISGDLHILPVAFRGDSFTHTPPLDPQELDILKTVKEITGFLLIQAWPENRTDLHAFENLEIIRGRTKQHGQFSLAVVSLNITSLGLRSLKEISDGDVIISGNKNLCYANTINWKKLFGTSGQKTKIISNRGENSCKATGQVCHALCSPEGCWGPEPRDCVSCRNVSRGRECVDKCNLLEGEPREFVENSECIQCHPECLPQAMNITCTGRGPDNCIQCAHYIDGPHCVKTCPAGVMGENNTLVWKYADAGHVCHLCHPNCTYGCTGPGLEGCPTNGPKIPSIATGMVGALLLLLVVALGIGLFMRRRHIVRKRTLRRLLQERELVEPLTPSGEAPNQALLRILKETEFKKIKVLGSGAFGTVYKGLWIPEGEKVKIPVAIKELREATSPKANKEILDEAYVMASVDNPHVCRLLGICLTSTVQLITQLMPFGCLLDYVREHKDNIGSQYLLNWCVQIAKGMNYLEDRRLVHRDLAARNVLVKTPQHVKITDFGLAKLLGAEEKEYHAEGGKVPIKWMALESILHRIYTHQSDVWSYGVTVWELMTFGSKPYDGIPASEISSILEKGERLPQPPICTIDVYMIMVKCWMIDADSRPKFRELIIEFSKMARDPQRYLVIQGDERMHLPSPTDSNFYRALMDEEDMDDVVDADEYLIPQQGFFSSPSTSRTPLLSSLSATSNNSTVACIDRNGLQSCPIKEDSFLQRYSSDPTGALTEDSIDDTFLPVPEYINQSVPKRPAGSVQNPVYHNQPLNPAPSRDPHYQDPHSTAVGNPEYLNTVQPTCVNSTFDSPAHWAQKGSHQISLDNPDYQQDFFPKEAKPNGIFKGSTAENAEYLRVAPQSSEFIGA

[3] = 10 µM ATP, triplicate, read-out: AURKA IC50 ± SD
[4] = 10 µM ATP/0.2 mg/ml Kemptide, read-out: Aurora A IC50 (dose-response curve, supplement)
[5] = 10 µM ATP, triplicate, read-out: EGFR IC50 ± SD
[6] = 10 µM ATP/0.2 mg/ml Poly-Glu-Tyr, read-out: EGFR IC50 (dose-response curve, supplement)

IC50 [1, 3]: 6.68 ± 0.54 µM
IC50 [1, 4]: 6.7 µM
Aurora A % Activity Set1 ([1]; Log[nM] 0): 104%
Aurora A % Activity Set2 ([1]; Log[nM] 0): 94%
Aurora A % Activity Set3 ([1]; Log[nM] 0): 88%
Aurora A % Activity Set1 ([1]; Log[nM] 1.0): 95%
Aurora A % Activity Set2 ([1]; Log[nM] 1.0): 89%
Aurora A % Activity Set3 ([1]; Log[nM] 1.0): 91%
Aurora A % Activity Set1 ([1]; Log[nM] 1.5): 111%
Aurora A % Activity Set2 ([1]; Log[nM] 1.5): 100%
Aurora A % Activity Set3 ([1]; Log[nM] 1.5): 110%
Aurora A % Activity Set1 ([1]; Log[nM] 2.0): 100%
Aurora A % Activity Set2 ([1]; Log[nM] 2.0): 95%
Aurora A % Activity Set3 ([1]; Log[nM] 2.0): 96%
Aurora A % Activity Set1 ([1]; Log[nM] 2.5): 108%
Aurora A % Activity Set2 ([1]; Log[nM] 2.5): 100%
Aurora A % Activity Set3 ([1]; Log[nM] 2.5): 106%
Aurora A % Activity Set1 ([1]; Log[nM] 3.0): 88%
Aurora A % Activity Set2 ([1]; Log[nM] 3.0): 91%
Aurora A % Activity Set3 ([1]; Log[nM] 3.0): 84%
Aurora A % Activity Set1 ([1]; Log[nM] 3.5): 86%
Aurora A % Activity Set2 ([1]; Log[nM] 3.5): 80%
Aurora A % Activity Set3 ([1]; Log[nM] 3.5): 76%
Aurora A % Activity Set1 ([1]; Log[nM] 4.0): 30%
Aurora A % Activity Set2 ([1]; Log[nM] 4.0): 33%
Aurora A % Activity Set3 ([1]; Log[nM] 4.0): 27%
Aurora A % Activity Set1 ([1]; Log[nM] 4.5): 14%
Aurora A % Activity Set2 ([1]; Log[nM] 4.5): 14%
Aurora A % Activity Set3 ([1]; Log[nM] 4.5): 13%
Aurora A % Activity Set1 ([1]; Log[nM] 5.0): 8%
Aurora A % Activity Set2 ([1]; Log[nM] 5.0): 6%
Aurora A % Activity Set3 ([1]; Log[nM] 5.0): 4%
EGFR inhibition (in words) [2]: micromolar EGFR inhibition
Fold better for EGFR over AURKA [2]: 2 fold
Fold less potent than staurosporine against EGFR [2]: seven-fold
IC50 [2, 5]: 2.94 ± 0.0944 µM
IC50 [2, 6]: 3 µM
EGFR % Activity Set1 ([2]; Log[nM] 0): 98%
EGFR % Activity Set2 ([2]; Log[nM] 0): 102%
EGFR % Activity Set3 ([2]; Log[nM] 0): 105%
EGFR % Activity Set1 ([2]; Log[nM] 1.0): 102%
EGFR % Activity Set2 ([2]; Log[nM] 1.0): 110%
EGFR % Activity Set3 ([2]; Log[nM] 1.0): 108%
EGFR % Activity Set1 ([2]; Log[nM] 1.5): 105%
EGFR % Activity Set2 ([2]; Log[nM] 1.5): 106%
EGFR % Activity Set3 ([2]; Log[nM] 1.5): 108%
EGFR % Activity Set1 ([2]; Log[nM] 2.0): 99%
EGFR % Activity Set2 ([2]; Log[nM] 2.0): 102%
EGFR % Activity Set3 ([2]; Log[nM] 2.0): 104%
EGFR % Activity Set1 ([2]; Log[nM] 2.5): 96%
EGFR % Activity Set2 ([2]; Log[nM] 2.5): 93%
EGFR % Activity Set3 ([2]; Log[nM] 2.5): 97%
EGFR % Activity Set1 ([2]; Log[nM] 3.0): 72%
EGFR % Activity Set2 ([2]; Log[nM] 3.0): 79%
EGFR % Activity Set3 ([2]; Log[nM] 3.0): 78%
EGFR % Activity Set1 ([2]; Log[nM] 3.5): 43%
EGFR % Activity Set2 ([2]; Log[nM] 3.5): 48%
EGFR % Activity Set3 ([2]; Log[nM] 3.5): 43%
EGFR % Activity Set1 ([2]; Log[nM] 4.0): 23%
EGFR % Activity Set2 ([2]; Log[nM] 4.0): 24%
EGFR % Activity Set3 ([2]; Log[nM] 4.0): 22%
EGFR % Activity Set1 ([2]; Log[nM] 4.5): 8%
EGFR % Activity Set2 ([2]; Log[nM] 4.5): 9%
EGFR % Activity Set3 ([2]; Log[nM] 4.5): 8%
EGFR % Activity Set1 ([2]; Log[nM] 5.0): 4%
EGFR % Activity Set2 ([2]; Log[nM] 5.0): 4%
EGFR % Activity Set3 ([2]; Log[nM] 5.0): 4%
SMILES: COc1ccc(Nc2ncnc3[nH]ccc23)cc1 [Compound 6, N^4-(4-methoxyphenyl)-7H-pyrrolo[2,3-d]pyrimidine-4-amine]

IC50 [1, 3]: 3.23 ± 0.31 µM
IC50 [1, 4]: 3.3 µM
Aurora A % Activity Set1 ([1]; Log[nM] 0): 95%
Aurora A % Activity Set2 ([1]; Log[nM] 0): 102%
Aurora A % Activity Set3 ([1]; Log[nM] 0): 95%
Aurora A % Activity Set1 ([1]; Log[nM] 1.0): 100%
Aurora A % Activity Set2 ([1]; Log[nM] 1.0): 103%
Aurora A % Activity Set3 ([1]; Log[nM] 1.0): 99%
Aurora A % Activity Set1 ([1]; Log[nM] 1.5): 100%
Aurora A % Activity Set2 ([1]; Log[nM] 1.5): 103%
Aurora A % Activity Set3 ([1]; Log[nM] 1.5): 103%
Aurora A % Activity Set1 ([1]; Log[nM] 2.0): 100%
Aurora A % Activity Set2 ([1]; Log[nM] 2.0): 106%
Aurora A % Activity Set3 ([1]; Log[nM] 2.0): 105%
Aurora A % Activity Set1 ([1]; Log[nM] 2.5): 95%
Aurora A % Activity Set2 ([1]; Log[nM] 2.5): 97%
Aurora A % Activity Set3 ([1]; Log[nM] 2.5): 95%
Aurora A % Activity Set1 ([1]; Log[nM] 3.0): 95%
Aurora A % Activity Set2 ([1]; Log[nM] 3.0): 103%
Aurora A % Activity Set3 ([1]; Log[nM] 3.0): 93%
Aurora A % Activity Set1 ([1]; Log[nM] 3.5): 40%
Aurora A % Activity Set2 ([1]; Log[nM] 3.5): 40%
Aurora A % Activity Set3 ([1]; Log[nM] 3.5): 37%
Aurora A % Activity Set1 ([1]; Log[nM] 4.0): 16%
Aurora A % Activity Set2 ([1]; Log[nM] 4.0): 16%
Aurora A % Activity Set3 ([1]; Log[nM] 4.0): 15%
Aurora A % Activity Set1 ([1]; Log[nM] 4.5): 31%
Aurora A % Activity Set2 ([1]; Log[nM] 4.5): 30%
Aurora A % Activity Set3 ([1]; Log[nM] 4.5): 30%
Aurora A % Activity Set1 ([1]; Log[nM] 5.0): 17%
Aurora A % Activity Set2 ([1]; Log[nM] 5.0): 15%
Aurora A % Activity Set3 ([1]; Log[nM] 5.0): 16%
EGFR inhibition (in words) [2]: single-digit nanomolar EGFR inhibition
IC50 [2, 5]: 0.00363 ± 0.00043 µM
IC50 [2, 6]: 0.0036 µM
EGFR % Activity Set1 ([2]; Log[nM] 0): 44%
EGFR % Activity Set2 ([2]; Log[nM] 0): 50%
EGFR % Activity Set3 ([2]; Log[nM] 0): 53%
EGFR % Activity Set1 ([2]; Log[nM] 1.0): 18%
EGFR % Activity Set2 ([2]; Log[nM] 1.0): 17%
EGFR % Activity Set3 ([2]; Log[nM] 1.0): 20%
EGFR % Activity Set1 ([2]; Log[nM] 1.5): 12%
EGFR % Activity Set2 ([2]; Log[nM] 1.5): 13%
EGFR % Activity Set3 ([2]; Log[nM] 1.5): 15%
EGFR % Activity Set1 ([2]; Log[nM] 2.0): 4%
EGFR % Activity Set2 ([2]; Log[nM] 2.0): 5%
EGFR % Activity Set3 ([2]; Log[nM] 2.0): 4%
EGFR % Activity Set1 ([2]; Log[nM] 2.5): 3%
EGFR % Activity Set2 ([2]; Log[nM] 2.5): 3%
EGFR % Activity Set3 ([2]; Log[nM] 2.5): 3%
EGFR % Activity Set1 ([2]; Log[nM] 3.0): 1%
EGFR % Activity Set2 ([2]; Log[nM] 3.0): 2%
EGFR % Activity Set3 ([2]; Log[nM] 3.0): 2%
EGFR % Activity Set1 ([2]; Log[nM] 3.5): 1%
EGFR % Activity Set2 ([2]; Log[nM] 3.5): 1%
EGFR % Activity Set3 ([2]; Log[nM] 3.5): 0%
EGFR % Activity Set1 ([2]; Log[nM] 4.0): 0%
EGFR % Activity Set2 ([2]; Log[nM] 4.0): 0%
EGFR % Activity Set3 ([2]; Log[nM] 4.0): 0%
EGFR % Activity Set1 ([2]; Log[nM] 4.5): 1%
EGFR % Activity Set2 ([2]; Log[nM] 4.5): 1%
EGFR % Activity Set3 ([2]; Log[nM] 4.5): 1%
EGFR % Activity Set1 ([2]; Log[nM] 5.0): 0%
EGFR % Activity Set2 ([2]; Log[nM] 5.0): 0%
EGFR % Activity Set3 ([2]; Log[nM] 5.0): 0%
SMILES: Clc1ccc(Nc2ncnc3[nH]ccc23)cc1Br [Compound 7, N^4-(3-bromo, 4-chlorophenyl)-7H-pyrrolo[2,3-d]pyrimidine-4-amine]

Reference: article PMC6009956, “Design, synthesis and biological activity of N^4-phenylsubstituted-7H-pyrrolo[2,3-d]pyrimidin-4-amines as dual inhibitors of aurora kinase A and epidermal growth factor receptor kinase” (Journal of Enzyme Inhibition and Medicinal Chemistry, 2017)
